What all share (experiment): Cysteine liganding, probe competition
Assay type in all cases: binding

Experiment [1] concerns the target T1, DIP2A Disco-interacting protein 2 homolog A (Homo sapiens, UniProt Q14689).
T1 construct: 200 μL of lysate containing 5 mg/ml proteome was treated with 2 μL of 100× compound stock; endogenous in cells
The following applies: for Liganded: DIP2A Res# 6, uniprot Q14689. Summed up: (§1)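 Probe competition in native proteome: 5 mg/ml lysate, compound 1 hr 25° C, then desthiobiotin iodoacetamide (10 mM stock) 1 hr 25° C; acetone ppt, urea/DTT reduction, iodoacetamide alkylation, trypsin, streptavidin pull-down.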

The target of another experiment is T2, HIST1H3J Histone H3.1 (Homo sapiens, UniProt P68431).
T2 construct: Cells were resuspended in cold PBS on ice and sonicated with a probe sonicator to achieve lysis; endogenous in cells
Particulars: for Liganded: HIST1H3J Res# 111, uniprot P68431. Summed up:
as §1

Experiment [2] deals with T3, UBE2O (E3-independent) E2 ubiquitin-conjugating enzyme (Homo sapiens, UniProt Q9C0C9).
T3 construct: Cells were resuspended in cold PBS on ice and sonicated with a probe sonicator to achieve lysis; endogenous in cells
T3 sequence (Q9C0C9 1-1292): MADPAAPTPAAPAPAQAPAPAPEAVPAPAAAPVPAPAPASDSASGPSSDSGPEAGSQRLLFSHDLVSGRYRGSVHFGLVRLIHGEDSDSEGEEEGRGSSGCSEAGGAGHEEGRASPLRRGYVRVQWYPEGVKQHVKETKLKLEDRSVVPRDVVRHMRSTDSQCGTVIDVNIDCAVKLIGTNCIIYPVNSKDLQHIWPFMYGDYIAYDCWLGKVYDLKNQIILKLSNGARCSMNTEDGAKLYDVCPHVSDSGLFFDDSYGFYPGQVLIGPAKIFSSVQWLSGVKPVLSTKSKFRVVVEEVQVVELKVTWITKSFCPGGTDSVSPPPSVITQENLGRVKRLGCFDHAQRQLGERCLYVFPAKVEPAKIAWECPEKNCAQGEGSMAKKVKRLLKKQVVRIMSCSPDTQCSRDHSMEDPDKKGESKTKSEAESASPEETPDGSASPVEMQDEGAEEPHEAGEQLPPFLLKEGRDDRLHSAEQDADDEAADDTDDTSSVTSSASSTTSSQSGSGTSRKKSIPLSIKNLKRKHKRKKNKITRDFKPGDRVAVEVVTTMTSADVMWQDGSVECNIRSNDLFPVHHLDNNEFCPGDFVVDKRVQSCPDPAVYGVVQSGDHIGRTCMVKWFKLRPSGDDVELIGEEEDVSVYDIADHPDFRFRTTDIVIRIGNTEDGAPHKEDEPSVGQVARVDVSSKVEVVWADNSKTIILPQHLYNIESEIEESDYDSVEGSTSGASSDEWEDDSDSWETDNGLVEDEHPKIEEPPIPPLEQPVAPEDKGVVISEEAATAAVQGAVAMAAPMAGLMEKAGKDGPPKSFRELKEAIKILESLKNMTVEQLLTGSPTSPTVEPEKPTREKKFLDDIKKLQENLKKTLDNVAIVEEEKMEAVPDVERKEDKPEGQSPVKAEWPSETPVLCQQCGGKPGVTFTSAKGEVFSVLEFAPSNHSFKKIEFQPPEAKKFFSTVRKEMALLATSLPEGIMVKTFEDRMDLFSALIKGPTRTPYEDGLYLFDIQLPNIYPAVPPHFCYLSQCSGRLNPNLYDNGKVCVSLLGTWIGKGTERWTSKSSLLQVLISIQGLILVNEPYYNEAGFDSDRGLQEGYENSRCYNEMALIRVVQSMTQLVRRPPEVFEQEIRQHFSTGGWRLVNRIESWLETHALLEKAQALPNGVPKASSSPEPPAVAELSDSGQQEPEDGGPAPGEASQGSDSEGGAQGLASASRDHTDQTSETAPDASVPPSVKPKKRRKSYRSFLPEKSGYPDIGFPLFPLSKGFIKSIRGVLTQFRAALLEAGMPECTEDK
Put shortly: as §1

T1 sequence (Q14689 whole entry): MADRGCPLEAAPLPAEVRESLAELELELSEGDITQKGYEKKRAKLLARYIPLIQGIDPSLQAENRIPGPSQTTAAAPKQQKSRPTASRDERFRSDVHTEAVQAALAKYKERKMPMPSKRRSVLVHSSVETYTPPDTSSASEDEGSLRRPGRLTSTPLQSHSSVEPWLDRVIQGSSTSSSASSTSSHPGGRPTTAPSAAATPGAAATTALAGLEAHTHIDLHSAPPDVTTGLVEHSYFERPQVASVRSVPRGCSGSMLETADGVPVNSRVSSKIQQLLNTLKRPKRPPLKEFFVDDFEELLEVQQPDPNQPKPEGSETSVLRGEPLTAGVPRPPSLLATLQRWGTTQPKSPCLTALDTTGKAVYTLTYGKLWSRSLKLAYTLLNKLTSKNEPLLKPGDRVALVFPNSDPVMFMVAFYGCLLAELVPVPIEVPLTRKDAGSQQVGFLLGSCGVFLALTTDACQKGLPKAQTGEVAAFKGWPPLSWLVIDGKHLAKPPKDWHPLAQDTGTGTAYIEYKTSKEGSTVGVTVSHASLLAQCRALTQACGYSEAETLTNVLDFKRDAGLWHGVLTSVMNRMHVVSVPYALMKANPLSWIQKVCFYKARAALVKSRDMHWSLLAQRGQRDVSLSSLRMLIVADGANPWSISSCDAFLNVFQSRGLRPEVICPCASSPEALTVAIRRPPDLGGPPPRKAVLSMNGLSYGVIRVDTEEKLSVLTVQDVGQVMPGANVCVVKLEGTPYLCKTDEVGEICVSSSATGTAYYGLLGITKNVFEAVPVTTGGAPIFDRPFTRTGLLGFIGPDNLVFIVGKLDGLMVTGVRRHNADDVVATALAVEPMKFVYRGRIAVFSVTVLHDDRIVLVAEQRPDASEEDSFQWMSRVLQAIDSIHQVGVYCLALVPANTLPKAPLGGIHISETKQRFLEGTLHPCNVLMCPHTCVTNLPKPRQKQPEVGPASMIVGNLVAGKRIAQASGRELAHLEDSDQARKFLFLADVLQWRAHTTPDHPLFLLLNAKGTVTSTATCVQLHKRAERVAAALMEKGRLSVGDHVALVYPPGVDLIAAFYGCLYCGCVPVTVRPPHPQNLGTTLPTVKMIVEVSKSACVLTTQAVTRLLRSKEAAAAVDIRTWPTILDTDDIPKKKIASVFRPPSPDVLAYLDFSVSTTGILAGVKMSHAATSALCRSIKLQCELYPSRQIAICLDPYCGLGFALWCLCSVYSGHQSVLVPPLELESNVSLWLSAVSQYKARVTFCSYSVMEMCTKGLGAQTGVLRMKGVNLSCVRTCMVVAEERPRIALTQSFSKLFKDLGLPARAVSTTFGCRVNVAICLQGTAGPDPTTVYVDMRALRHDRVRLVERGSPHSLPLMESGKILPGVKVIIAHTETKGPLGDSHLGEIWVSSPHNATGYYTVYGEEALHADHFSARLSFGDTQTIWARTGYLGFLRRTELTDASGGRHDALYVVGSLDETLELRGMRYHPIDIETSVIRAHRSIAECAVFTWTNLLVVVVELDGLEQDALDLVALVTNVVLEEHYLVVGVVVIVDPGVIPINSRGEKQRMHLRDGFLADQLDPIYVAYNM

Consider `COc1ccc2c(c1)CCCN2C(=O)CCl` [KB02], for which the Liganded entry in experiment [1] was “YES”; on HIST1H3J Histone H3.1, “YES”; in experiment [2] (UBE2O Res# 370, uniprot Q9C0C9) it was “YES”; in experiment [2] (UBE2O Res# 400, uniprot Q9C0C9) it was “YES”; in experiment [2] (UBE2O Res# 910, uniprot Q9C0C9), “YES”; in experiment [2] (UBE2O Res# 913, uniprot Q9C0C9), “YES”.
Turning to `O=C(CCl)Nc1cc(C(F)(F)F)cc(C(F)(F)F)c1` [KBO3], the Liganded result in experiment [1] is on record as “YES”; on HIST1H3J Histone H3.1, “YES”; in experiment [2] (UBE2O Res# 370, uniprot Q9C0C9) it was “YES”. Also, the “100 Max” value in experiment [1] (uniprot Q14689) was 39.34; on HIST1H3J Histone H3.1 (uniprot P68431, in % (unit assumed)), 50.87. Moreover, the 100 ave in experiment [1] (uniprot Q14689) is recorded as 39.34; on HIST1H3J Histone H3.1 (uniprot P68431), 22.28. Further, the “500 Max” value in experiment [1] (uniprot Q14689) is reported as 91.21; on HIST1H3J Histone H3.1 (uniprot P68431), 79.39. In addition, the 500 ave in experiment [1] (uniprot Q14689) was 91.21; on HIST1H3J Histone H3.1 (uniprot P68431) it was 79.39.
